Our source for the IC50 values is patent US20150353495A1 (PORTOLA PHARMACEUTICALS, INC., priority 2010, published 2015).

What all share (format): biochemical
One assay concerns the target T1, JAK1 (Homo sapiens, UniProt P23458).
T1 construct: 5 μl of catalytic domain recombinant Kinase enzyme+Tyr peptide substrate (Invitrogen, CA); purchased Invitrogen
Description: Z'-LYTE kinase assay JAK1. The method, boiled down: (§1)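 In duplicate wells, each test molecule (1% final DMSO) is incubated with recombinant kinase catalytic domain, Tyr6 peptide substrate and ATP for one hour at room temperature; a site-specific protease is then added for another hour before fluorescence reading.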

The next assay deals with T2, JAK2 (Homo sapiens, UniProt O60674).
T2 construct: 5 μl of catalytic domain recombinant Kinase enzyme+Tyr peptide substrate (Invitrogen, CA); purchased Invitrogen
T2 sequence (O60674 849-1124 limits assumed): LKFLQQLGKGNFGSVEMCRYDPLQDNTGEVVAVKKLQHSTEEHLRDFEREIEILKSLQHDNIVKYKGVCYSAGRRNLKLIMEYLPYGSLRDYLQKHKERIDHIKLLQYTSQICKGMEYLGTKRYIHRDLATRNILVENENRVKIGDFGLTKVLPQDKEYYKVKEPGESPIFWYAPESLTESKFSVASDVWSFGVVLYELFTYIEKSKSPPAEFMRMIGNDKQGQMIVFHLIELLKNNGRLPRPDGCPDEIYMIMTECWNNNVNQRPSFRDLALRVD
Description: Z'-LYTE kinase assay JAK2. An outline of the steps:
as §1

In another assay the target is T3, JAK3 (Homo sapiens, UniProt P52333).
T3 construct: 5 μl of catalytic domain recombinant Kinase enzyme+Tyr peptide substrate (Invitrogen, CA); purchased Invitrogen
T3 sequence (P52333 822-1111 limits assumed): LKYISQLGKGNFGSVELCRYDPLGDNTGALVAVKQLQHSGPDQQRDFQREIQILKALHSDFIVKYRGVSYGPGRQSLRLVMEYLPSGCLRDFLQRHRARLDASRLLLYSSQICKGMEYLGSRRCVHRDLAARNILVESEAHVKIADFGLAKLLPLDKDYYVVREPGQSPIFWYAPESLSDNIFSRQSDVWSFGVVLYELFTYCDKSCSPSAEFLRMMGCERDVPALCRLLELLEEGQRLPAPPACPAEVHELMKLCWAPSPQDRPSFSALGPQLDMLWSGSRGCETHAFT
Nature of the assay: Z'-LYTE kinase assay JAK3. The method, boiled down: as §1

SMILES strings stand for the structures. pIC50: −log10 of the molar value.

T1 sequence (P23458 875-1153 limits assumed): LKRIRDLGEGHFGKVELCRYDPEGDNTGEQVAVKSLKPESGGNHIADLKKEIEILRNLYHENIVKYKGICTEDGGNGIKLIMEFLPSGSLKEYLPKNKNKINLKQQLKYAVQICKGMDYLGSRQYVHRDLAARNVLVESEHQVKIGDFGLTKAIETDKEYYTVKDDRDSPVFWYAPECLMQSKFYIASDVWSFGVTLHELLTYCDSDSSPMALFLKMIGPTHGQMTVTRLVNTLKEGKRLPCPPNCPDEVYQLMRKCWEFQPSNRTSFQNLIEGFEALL

Regarding `COC(=O)N(C)c1ccc(Nc2cc(NCc3cccc4[nH]ccc34)c(C(N)=O)cn2)cc1` [Example 474, methyl 4-(4-((1H-indol-4-yl)methylamino)-5-carbamoylpyridin-2-ylamino)phenyl(methyl)carbamate], the values for the pIC50 against JAK1, at JAK2 and against JAK3 were 7.00 to 8.00, 7.00 to 8.00 and 8.00 to 9.00, respectively.

Take `Cc1cc(Nc2cc(NCc3cncnc3)c(C(N)=O)cn2)ccc1C(=O)N(C)C` [Example 287, 6-(4-(dimethylcarbamoyl)-3-methylphenylamino)-4-(pyrimidin-5-ylmethylamino)nicotinamide]: the pIC50 is under 6.00 against JAK1, under 6.00 against JAK2 and 6.00 to 7.00 against JAK3.

As to `CC(=O)N1CCC[C@H](CNc2cc(Nc3ccc(F)c(C(=O)N4CCC4)c3)ncc2C(N)=O)C1` [Example 444, (R)-4-((1-acetylpiperidin-3-yl)methylamino)-6-(3-(azetidine-1-carbonyl)-4-fluorophenylamino)nicotinamide], the pIC50 against JAK1 was under 6.00; against JAK2 it was under 6.00; on JAK3, 6.00 to 7.00.

As to `Cc1cc(Nc2cc(NCc3cccc4[nH]ccc34)c(C(N)=O)cn2)ccc1C(=O)N(C)C` [Example 295, 4-((1H-indol-4-yl)methylamino)-6-(4-(dimethylcarbamoyl)-3-methylphenylamino)nicotinamide], the values for the pIC50 against JAK1, against JAK2 and against JAK3 were 8.00 to 9.00, 8.00 to 9.00 and over 9.00, respectively.

Take `CC(=O)N(C)c1ccc(Nc2cc(NCc3cccc4[nH]ccc34)c(C(N)=O)cn2)cc1` [Example 469, 4-((1H-indol-4-yl)methylamino)-6-(4-(N-methylacetamido)phenylamino)nicotinamide]: the negative-log IC50 (pIC50) was 7.00 to 8.00 at JAK1, 7.00 to 8.00 at JAK2 and 8.00 to 9.00 against JAK3.

As for `CN(C)C(=O)C1CCN(c2ccc(Nc3cc(NCc4cccc5ccsc45)c(C(N)=O)cn3)cc2Cl)CC1` [Example 351, 4-(benzo[b]thiophen-7-ylmethylamino)-6-(3-chloro-4-(4-(dimethylcarbamoyl)piperidin-1-yl)phenylamino)nicotinamide], the pIC50 was 6.00 to 7.00 on JAK1, 6.00 to 7.00 at JAK2 and 8.00 to 9.00 against JAK3.

In the case of `CCC(=O)N1CCC(c2ccc(Nc3cc(NCc4nccs4)c(C(N)=O)cn3)cc2)CC1` [Example 177, 6-(4-(1-propionylpiperidin-4-yl)phenylamino)-4-(thiazol-2-ylmethylamino)nicotinamide], the negative logarithm of the IC50 (pIC50) was 6.00 to 7.00 on JAK1, 6.00 to 7.00 at JAK2 and 7.00 to 8.00 against JAK3.

`CC(=O)Nc1ccc(Nc2cc(NCc3cncc(F)c3)c(C(N)=O)cn2)cc1` [Example 484, 6-(4-acetamidophenylamino)-4-((5-fluoropyridin-3-yl)methylamino)nicotinamide]: the pIC50 at JAK1 was 6.00 to 7.00; at JAK2, 6.00 to 7.00; against JAK3, 8.00 to 9.00.

For `COc1ccc(Nc2cc(NC[C@@H]3CCCN(C(=O)N(C)C)C3)c(C(N)=O)cn2)cc1` [Example 53, (S)-4-((1-(dimethylcarbamoyl)piperidin-3-yl)methylamino)-6-(4-methoxyphenylamino)nicotinamide], the pIC50 was under 6.00 at JAK1, under 6.00 on JAK2 and 6.00 to 7.00 at JAK3.

`CN(C(=O)C1CC1)c1ccc(Nc2cc(NCc3cccc(F)n3)c(C(N)=O)cn2)cc1` [Example 489, 4-((6-fluoropyridin-2-yl)methylamino)-6-(4-(N-methylcyclopropanecarboxamido)phenylamino)nicotinamide]: the figures for the pIC50 against JAK1, at JAK2 and at JAK3 were 6.00 to 7.00, 6.00 to 7.00 and 7.00 to 8.00, respectively.

`CCC(=O)N1CCC(c2ccc(Nc3cc(NCc4c(F)cccc4F)c(C(N)=O)cn3)cc2)CC1` [Example 203, 4-(2,6-difluorobenzylamino)-6-(4-(1-propionylpiperidin-4-yl)phenylamino)nicotinamide]: the pIC50 was 6.00 to 7.00 at JAK1, 7.00 to 8.00 against JAK2 and 8.00 to 9.00 against JAK3.
